Changes are numbered by the printed parent chain. Like-named read-outs stand apart in the source and are kept apart here.
What was measured:
Assay type in all cases: biochemical
[1] = target: CNGA3 D609M channels (Homo sapiens, UniProt Q16281, D609M); experiment: Inside-out patch clamp, CNGA3 D609M
[2] = target: T1, CNGA3 635X homomeric channels (Homo sapiens, UniProt Q16281); experiment: Inside-out patch clamp, CNGA3 635X
T1 sequence (Q16281 1-634 limits assumed): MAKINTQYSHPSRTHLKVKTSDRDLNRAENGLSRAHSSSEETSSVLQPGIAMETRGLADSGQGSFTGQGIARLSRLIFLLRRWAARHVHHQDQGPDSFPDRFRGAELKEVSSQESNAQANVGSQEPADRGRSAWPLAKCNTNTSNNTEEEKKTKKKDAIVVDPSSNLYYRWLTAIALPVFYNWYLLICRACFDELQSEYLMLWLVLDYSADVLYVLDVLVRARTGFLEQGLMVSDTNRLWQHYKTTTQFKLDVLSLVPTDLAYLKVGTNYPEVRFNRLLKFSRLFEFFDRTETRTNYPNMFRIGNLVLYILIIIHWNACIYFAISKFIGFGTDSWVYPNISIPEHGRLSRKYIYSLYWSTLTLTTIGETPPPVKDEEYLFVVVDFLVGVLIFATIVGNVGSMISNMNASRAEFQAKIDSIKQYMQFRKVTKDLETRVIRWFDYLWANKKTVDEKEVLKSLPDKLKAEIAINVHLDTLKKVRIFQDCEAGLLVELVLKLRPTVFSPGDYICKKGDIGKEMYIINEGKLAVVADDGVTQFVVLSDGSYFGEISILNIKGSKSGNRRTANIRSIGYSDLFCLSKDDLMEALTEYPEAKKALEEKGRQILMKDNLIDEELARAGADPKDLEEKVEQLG

[3] = target: T2, CNGA3 P99L, A105P (PA-LP) channels (Homo sapiens, UniProt Q16281, A105P/P99L); experiment: Inside-out patch clamp, CNGA3 P99L, A105P; conditions: for EC50: read-out: K1/2 cGMP
T2 sequence (Q16281 1-694 P99L/A105P): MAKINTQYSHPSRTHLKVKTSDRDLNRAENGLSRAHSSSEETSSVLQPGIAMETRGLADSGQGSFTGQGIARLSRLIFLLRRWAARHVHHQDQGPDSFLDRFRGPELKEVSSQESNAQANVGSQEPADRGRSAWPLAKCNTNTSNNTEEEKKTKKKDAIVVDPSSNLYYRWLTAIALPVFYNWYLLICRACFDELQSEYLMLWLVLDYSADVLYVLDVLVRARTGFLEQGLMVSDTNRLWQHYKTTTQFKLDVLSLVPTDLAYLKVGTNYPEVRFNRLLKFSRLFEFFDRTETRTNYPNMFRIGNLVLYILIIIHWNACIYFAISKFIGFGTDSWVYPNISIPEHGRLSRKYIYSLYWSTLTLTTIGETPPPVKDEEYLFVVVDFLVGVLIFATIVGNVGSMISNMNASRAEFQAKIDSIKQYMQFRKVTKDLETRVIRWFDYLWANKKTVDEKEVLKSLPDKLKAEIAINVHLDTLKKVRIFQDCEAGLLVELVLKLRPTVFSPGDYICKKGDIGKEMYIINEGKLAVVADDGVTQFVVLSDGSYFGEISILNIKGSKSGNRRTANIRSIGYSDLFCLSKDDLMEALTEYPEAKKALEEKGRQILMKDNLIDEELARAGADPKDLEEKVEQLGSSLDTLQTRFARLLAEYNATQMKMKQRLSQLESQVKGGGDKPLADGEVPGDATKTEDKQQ

[4] = target: T3, CNGA3 N7R-A, 613X channels (Homo sapiens, UniProt Q16281, R101A/R103A/R72A/R75A/R81A/R82A/R86A); experiment: Inside-out patch clamp, CNGA3 N7R-A, 613X
T3 sequence (Q16281 1-612 R72A/R75A/R81A/R82A/R86A/R101A/R103A limits assumed): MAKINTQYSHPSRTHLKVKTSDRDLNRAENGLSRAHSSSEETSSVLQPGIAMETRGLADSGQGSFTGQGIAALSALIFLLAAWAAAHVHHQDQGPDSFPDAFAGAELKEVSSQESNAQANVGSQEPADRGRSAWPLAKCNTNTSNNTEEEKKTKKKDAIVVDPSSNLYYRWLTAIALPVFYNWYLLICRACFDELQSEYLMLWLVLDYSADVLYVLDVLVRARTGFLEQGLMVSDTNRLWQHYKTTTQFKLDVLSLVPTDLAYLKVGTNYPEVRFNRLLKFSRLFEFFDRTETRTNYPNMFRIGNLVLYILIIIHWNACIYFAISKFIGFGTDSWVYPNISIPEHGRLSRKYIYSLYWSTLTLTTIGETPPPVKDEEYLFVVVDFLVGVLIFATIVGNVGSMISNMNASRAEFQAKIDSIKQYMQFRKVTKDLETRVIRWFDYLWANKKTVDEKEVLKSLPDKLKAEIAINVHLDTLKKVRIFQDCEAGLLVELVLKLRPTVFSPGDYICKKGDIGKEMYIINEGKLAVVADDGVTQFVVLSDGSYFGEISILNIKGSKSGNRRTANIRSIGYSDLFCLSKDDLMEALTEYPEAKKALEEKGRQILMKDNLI

[5] = target: T4, human CNGA3 wild-type homomeric channels (Homo sapiens, UniProt Q16281); experiment: Inside-out patch clamp, homomeric CNGA3 wild type expressed in X. laevis oocytes
T4 sequence (Q16281 1-694): T2 sequence (Q16281 1-694 P99L/A105P) with L99P, P105A

[6] = read-out: K1/2 cGMP, +80 mV, no PIPn
[7] = representative patch, before PIP3
[8] = representative patch, 1 µM PIP3

CNGA3 D609M channels, sequence (Q16281 whole entry D609M): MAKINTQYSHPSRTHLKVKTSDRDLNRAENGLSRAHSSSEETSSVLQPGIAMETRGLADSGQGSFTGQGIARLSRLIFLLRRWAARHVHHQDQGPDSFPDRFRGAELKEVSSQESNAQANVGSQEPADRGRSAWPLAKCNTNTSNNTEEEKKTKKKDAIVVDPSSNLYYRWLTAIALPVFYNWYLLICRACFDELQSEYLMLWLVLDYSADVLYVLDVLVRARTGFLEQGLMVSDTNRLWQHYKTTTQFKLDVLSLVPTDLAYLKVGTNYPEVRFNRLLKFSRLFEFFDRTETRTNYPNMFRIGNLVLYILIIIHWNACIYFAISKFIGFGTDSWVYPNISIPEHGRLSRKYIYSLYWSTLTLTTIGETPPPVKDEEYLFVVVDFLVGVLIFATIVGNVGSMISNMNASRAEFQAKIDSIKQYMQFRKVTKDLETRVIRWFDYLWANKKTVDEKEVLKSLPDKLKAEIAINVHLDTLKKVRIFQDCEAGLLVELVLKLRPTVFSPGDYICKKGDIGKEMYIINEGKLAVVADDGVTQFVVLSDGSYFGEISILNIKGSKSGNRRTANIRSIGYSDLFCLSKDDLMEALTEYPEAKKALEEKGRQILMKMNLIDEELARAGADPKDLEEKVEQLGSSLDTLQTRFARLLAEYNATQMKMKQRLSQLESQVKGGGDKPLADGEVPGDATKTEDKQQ

In the case of `Nc1nc2c(ncn2[C@@H]2O[C@@H]3COP(=O)(O)O[C@H]3[C@H]2O)c(=O)[nH]1` [cGMP, cyclic guanosine monophosphate], the “Po max cGMP” value ([1]; estimated using tetracaine block) is reported as 0.30 ± 0.02, the Hill coefficient ([2]; cGMP activation) is reported as 2.00 ± 0.00 (5) and the EC50 [2, 6] is reported as 8.2 ± 0.57 µM. The “Po max cGMP” value ([2]; saturating cGMP) was 0.92 ± 0.01 (4), the EC50 ([3]; +80 mV, no PIPn) was 5.3 ± 0.18 µM and the EC50 [3, 7] was 5.7 µM. The Hill coefficient h [3, 7] was 1.7, the “Po max cGMP” value ([3]; saturating cGMP) was 0.95 ± 0.01 (4) and the Hill coefficient ([4]; cGMP activation) was 1.82 ± 0.04 (6). The EC50 [4, 6] was 16.4 ± 1.65 µM, the Hill coefficient ([5]; cGMP activation) was 1.91 ± 0.04 (18) and the “Po max cGMP” value ([5]; estimated from state-dependent block by tetracaine) was ~0.99. The EC50 [5, 6] was 9.29 ± 0.43 µM.
“phosphatidylinositol (3,4,5)-trisphosphate [PIP3]” was tested, and the “effect on relative cGMP efficacy” value ([1]; 1 µM PIP3) was “elevated relative cGMP efficacy”, the “PIP3-induced change in cAMP efficacy” value ([2]; 1 µM PIP3) was “failed to show a PIP3-dependent increase in cAMP efficacy” and the “fold change in cAMP efficacy after PIP3” value ([2]; 10 µM PIP3) was 1.06 ± 0.03 fold. For the same compound, the “Hill coefficient h after phosphoinositide” value ([3]; after PIP3 or PIP2 application) was 1.8, the “K1/2 cGMP after phosphoinositide” value ([3]; after PIP3 or PIP2 application) was 9.4 ± 0.9 µM and the “Hill coefficient h after PIP3” value [3, 8] was 1.7. The “K1/2 cGMP after PIP3” value [3, 8] was 11.4 µM, the “fold change in K1/2 cGMP after PIP3” value ([4]; 10 µM PIP3) was 1.02 ± 0.05 fold and the “fold increase Imax cAMP/cGMP” value ([5]; 1 µM PIP3 after prior application of cyto D) was 2.54 ± 0.27 fold. For the same compound, the “fold increase in Imax cAMP/cGMP” value ([5]; 10 µM phosphoinositide applied to inside-out patch) was 2.63 ± 0.13 fold, the “effect on maximal cGMP current” value ([5]; 1 mM cGMP) was “not significantly altered” and the “K1/2 cAMP after phosphoinositide” value ([5]; apparent cAMP affinity after PIP3 or PIP2 application) was 1.16 ± 0.06 mM. The “Po max cAMP after PIP3” value ([5]; fluctuation analysis) was 0.37 ± 0.07 and the “Po max cGMP after PIP3” value ([5]; fluctuation analysis) was 0.93 ± 0.01.

Reference: article PMC3607822 (The Journal of General Physiology, 2013)
